Several values for one entry are separate records, joined by “and”; a condition that tells them apart may be missing. Identical values can stand only once.
Key:
[1] = parameters: method as in PMID 33031714; settings: adults with focal onset seizures; ref [2]; cited from earlier work
[2] = target: T1, hNav1.5 (Homo sapiens, UniProt Q14524); assay: State-dependent blocking/unblocking kinetics of Nav1.5 (use-dependent block protocol, inactivation time constants); type: cell-based
T1 construct: host or cells: HEK293T
T1 sequence (Q14524 whole entry): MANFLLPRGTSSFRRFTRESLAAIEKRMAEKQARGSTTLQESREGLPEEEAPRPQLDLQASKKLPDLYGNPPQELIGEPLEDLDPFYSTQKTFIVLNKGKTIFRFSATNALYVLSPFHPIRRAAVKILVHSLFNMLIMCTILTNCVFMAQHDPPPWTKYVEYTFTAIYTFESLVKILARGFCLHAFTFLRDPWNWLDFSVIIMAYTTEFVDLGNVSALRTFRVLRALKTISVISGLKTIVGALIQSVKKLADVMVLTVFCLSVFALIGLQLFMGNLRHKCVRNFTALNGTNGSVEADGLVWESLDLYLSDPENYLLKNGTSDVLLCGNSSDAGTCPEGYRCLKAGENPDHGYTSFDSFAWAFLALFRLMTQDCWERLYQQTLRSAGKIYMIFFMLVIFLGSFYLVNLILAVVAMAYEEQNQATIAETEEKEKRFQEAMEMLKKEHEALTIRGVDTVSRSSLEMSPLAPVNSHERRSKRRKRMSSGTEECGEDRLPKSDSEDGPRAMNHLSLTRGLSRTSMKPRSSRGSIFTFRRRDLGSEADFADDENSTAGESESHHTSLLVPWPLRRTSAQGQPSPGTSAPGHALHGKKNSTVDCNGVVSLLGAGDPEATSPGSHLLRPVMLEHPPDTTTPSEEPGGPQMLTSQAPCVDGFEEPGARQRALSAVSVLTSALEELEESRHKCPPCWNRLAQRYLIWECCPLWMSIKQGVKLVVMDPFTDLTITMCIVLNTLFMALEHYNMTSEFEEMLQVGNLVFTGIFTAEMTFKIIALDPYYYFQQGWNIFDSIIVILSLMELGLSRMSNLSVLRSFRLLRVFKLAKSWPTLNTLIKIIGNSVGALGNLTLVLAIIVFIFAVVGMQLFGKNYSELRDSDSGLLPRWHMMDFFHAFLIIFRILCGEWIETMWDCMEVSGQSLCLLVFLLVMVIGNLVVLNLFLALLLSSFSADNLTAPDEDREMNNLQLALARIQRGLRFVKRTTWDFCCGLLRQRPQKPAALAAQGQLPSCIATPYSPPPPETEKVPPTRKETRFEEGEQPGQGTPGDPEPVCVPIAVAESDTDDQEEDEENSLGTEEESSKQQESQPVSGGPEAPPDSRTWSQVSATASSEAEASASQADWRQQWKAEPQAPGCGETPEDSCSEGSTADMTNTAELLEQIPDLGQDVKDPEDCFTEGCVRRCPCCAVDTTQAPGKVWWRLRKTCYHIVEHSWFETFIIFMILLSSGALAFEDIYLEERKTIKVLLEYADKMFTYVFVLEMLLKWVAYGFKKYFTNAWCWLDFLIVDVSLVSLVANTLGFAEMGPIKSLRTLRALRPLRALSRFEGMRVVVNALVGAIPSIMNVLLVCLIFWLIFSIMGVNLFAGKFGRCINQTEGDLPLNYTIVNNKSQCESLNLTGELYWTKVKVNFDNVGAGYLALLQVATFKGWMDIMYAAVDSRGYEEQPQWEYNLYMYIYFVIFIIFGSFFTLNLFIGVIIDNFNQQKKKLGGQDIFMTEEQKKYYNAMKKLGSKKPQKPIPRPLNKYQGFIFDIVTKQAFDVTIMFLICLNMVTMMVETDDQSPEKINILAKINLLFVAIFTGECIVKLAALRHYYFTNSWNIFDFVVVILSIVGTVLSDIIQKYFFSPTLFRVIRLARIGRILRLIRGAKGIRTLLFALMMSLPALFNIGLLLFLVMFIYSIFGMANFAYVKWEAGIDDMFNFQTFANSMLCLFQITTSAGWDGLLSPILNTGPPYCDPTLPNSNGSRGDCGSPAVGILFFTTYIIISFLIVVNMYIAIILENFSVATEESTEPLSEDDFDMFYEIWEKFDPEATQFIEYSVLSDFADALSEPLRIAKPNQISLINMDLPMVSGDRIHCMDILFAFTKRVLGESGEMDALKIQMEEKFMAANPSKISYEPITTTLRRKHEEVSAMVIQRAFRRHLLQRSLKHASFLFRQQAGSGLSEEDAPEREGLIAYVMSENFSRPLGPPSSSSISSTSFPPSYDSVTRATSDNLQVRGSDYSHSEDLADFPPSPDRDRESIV
Protocol: Manual whole-cell patch-clamp experiments were performed at room temperature, with equipment as described in previous studies. Pipettes were pulled from Clark borosilicate glass capillaries with inner filament (GC150F-10, Harvard Apparatus, Holliston, MA, USA) and had typical resistances of 2–3 MΩ. Recordings were performed with a WPC-100 resistive feedback amplifier (ESF electronic, Göttingen, Germany) or an Axopatch 200B amplifier (Axon Instruments—Molecular Devices, San Jose, CA, USA) connected to a Digidata 1322A interface driven by the pClamp 8.2 Clampex module (Axon Instruments, part of Molecular Devices, San Jose, CA, USA). For different types of ion channel, we applied specific voltage-clamp protocols as follows: • - For hERG, a standard two-step activation protocol was used: holding at −70 mV, a 100 ms step at −50 mV used as current reference for measurements, a 2 s depolarizing step at +40 mV, followed by a 2 s step at −50 mV to elicit the peak hERG current by rapid recovery from inactivation, repeated sweeps at 10 s intervals, plus specific protocols to assess the voltage dependence of activation and inactivation, as described in Thomet et al., 2021 [11]. • - For hKv7.1 + minK, a general two-step activation protocol was used: holding at −110 mV, a 250 ms step at −80 mV with a brief (50 ms) step at −90 mV at the middle to monitor seal quality, a 3000 ms depolarizing step at +60 mV, followed by a 1000 ms step at −50 mV; repeated sweeps at 20 s intervals. • - For hCav1.2, a pharmacology protocol with holding at −80 mV, a first 100 ms step at −50 mV and a second 200 ms step at 0 mV, repeated sweeps at 20 s intervals with drug application after 5 sweeps if current levels were steady, plus an activation–inactivation protocol with holding at −80 mV, 1000 ms depolarizing steps from −80 to +50 mV in 10 mV increments, followed by 250 ms steps at +10 mV and a return to −80 mV; 14 sweeps at 20 s intervals. • - For hNav1.5, multiple voltage protocols were used, including the following: • - A standard pharmacology protocol with holding at −90 mV, a 20 ms step at −110 mV for seal monitoring, a 40 ms activation step at −10 mV, and repeated sweeps at 1 s intervals.
To estimate state-specific blocking and unblocking kinetics, we applied, initially and during exposure to cenobamate, a special voltage protocol devised for use-dependent block, with repeated brief depolarizing pulses at −10 mV separated by variable intervals at a hyperpolarized potential (−120 mV), with durations between 5 and 50 ms, as described in Section 2. Recordings using this protocol in initial conditions and with cenobamate application are illustrated in Figure S3 of the Supplementary Materials. By noting with td = 10 ms and tr = 5–50 ms the times spent at a depolarized potential and at a resting hyperpolarized potential during each pulse, with on the fraction of available (non-inactivated or blocked) channels that produce the peak Na^+ current during each depolarizing pulse of the sequence, and with τi and τr, the apparent macroscopic time constants of inactivation and recovery from inactivation in control conditions (in the absence of a blocker), we obtained using several approximations a general recurrence formula that allows computation for each experiment of the recovery time constant, knowing the inactivation time constant (obtained by the monoexponential fit of the inactivation part of the recording during the depolarization pulse) and the decay in peak INa amplitude during pulse n relative to the peak amplitude during the preceding pulse (1 − on)/on−1 (detailed explanations in Section S1 of the Supplementary Materials): τr=tr/ln1−e^−td/τi−ln1−on/on−1

In the case of `NC(=O)O[C@@H](Cn1ncnn1)c1ccccc1Cl` [cenobamate], the “reduction in monthly seizure frequency” value [1] is given as “up to 55%”, the seizure-free rates [1] is given as “up to 28%” and the “kib (blocking rate, inactivated conformation)” value [2] is given as 669800 M⁻¹ s⁻¹. For the same molecule, the “kib (model script)” value [2] was 669800 M⁻¹ s⁻¹, the “kib^−1 (unblocking rate, inactivated conformation)” value [2] was 0.1825 ms^−1 and the “kob (blocking rate, open conformation)” value [2] was 2.15e+06 M⁻¹ s⁻¹. For the same molecule, the “kob (model script)” value [2] was 2.15e+06 M⁻¹ s⁻¹, the “kob^−1 (unblocking rate, open conformation)” value [2] was 0.189 ms^−1 and the Kd ([2]; Kd (I)) was 273 µM. For the same molecule, the Kd ([2]; Kd (O), open conformation, assumed equivalent to IC50 on peak INa) was 87.8 µM, the “1/τib (kib × [D] + kib^−1)” value ([2]; [D] 98.44 µM) was 0.2484 ms^−1 and the “est. τib” value ([2]; blocking/unblocking time constant of inactivated conformation, cenobamate estimated 98.44 µM, per experiment and mean ± SD) was 4.08 ms and 3.83 ms and 4.94 ms and 3.25 ms. For the same molecule, the “Rate (1/τ) with cenobamate” value ([2]; cenobamate 200 µM, initial 0.94) was 1.56 ms^−1 and the “τi+ob” value ([2]; use-dependent block protocol during cenobamate (estimated 98.44 µM), per experiment and mean ± SD) was 2.23 ms and 3.04 ms and 2.94 ms and 1.73 ms.

Reference: article PMC11674187, “Inhibitory Effects of Cenobamate on Multiple Human Cardiac Ion Channels and Possible Arrhythmogenic Consequences” (Biomolecules, 2024)
